Laboratory results published in patent publication US9388419B2 (The Regents of the University of Colorado, a body corporate, priority 2009, dated 2016).
Where two headings read alike, the source gives them in different places.

Legend:
E. coli Mach1-T1 = experiment: Minimum inhibitory concentration (MIC) of 3-HP, microaerobic, 96 well-plate, MOPS minimal media; type: cell-based, Escherichia coli; settings: Mach1-T1 with feedback resistant aroH mutant plasmid, MOPS minimal media
Description: Overnight cultures of strains were grown in 5 ml LB (with antibiotic where appropriate). A 1 v/v % was used to inoculate a 15 ml conical tube filled to the top with MOPS minimal media and capped. After the cells reached mid exponential phase, the culture was diluted to an OD600 of 0.200. The cells were further diluted 1:20 and a 10 ul aliquot was used to inoculate each well (˜10^4 cells per well).
The minimum inhibitory concentration (MIC) was determined microaerobically in a 96 well-plate format. Overnight cultures of strains were grown in 5 mL LB (with antibiotic where appropriate). A 1% (v/v) inoculum was introduced into a 15 ml culture of MOPS minimal media. After the cells reached mid-exponential phase, the culture was diluted to an OD600 of 0.200. The cells were further diluted 1:20 and a 10 μL aliquot was used to inoculate each well of a 96 well plate (˜10^4 cells per well).

[1] = system: Yeast strains (S288C background); type: cell-based, Saccharomyces cerevisiae
Description: The minimum inhibitory concentration (MIC) was determined aerobically in a 96 well-plate format. […] Media supplements were added according to levels reported in the Supplements Table, where specified. Overnight cultures of strains were grown in triplicate in 5 mL SD media with vitamins (Methods in Enzymology vol. 350, page 17 (2002)). A 1% (v/v) inoculum was introduced into a 5 ml culture of SD minimal media without vitamins. After the cells reached mid-exponential phase, the culture was diluted to an OD600 of 0.200. The cells were further diluted 1:5 and a 10 μL aliquot was used to inoculate each well of a 96 well plate (˜10^4 cells per well) to total volume of 100 uL. […] Plates were incubated for 72 hours at 30 C.

[2] = system: Yeast strains (S288C background); type: cell-based, Saccharomyces cerevisiae; remark: listed apart in the source
Description: The minimum inhibitory concentration (MIC) was determined anaerobically in a 96 well-plate format. […] A 1% (v/v) inoculum was introduced into a 5 ml culture of SD minimal media without vitamins. After the cells reached mid-exponential phase, the culture was diluted to an OD600 of 0.200. The cells were further diluted 1:5 and a 10 μL aliquot was used to inoculate each well of a 96 well plate (˜10^4 cells per well) to total volume of 100 uL. […] Plates were incubated for 72 hours at 30 C. […] Plates were sealed in biobag anaerobic chambers that contained gas generators for anaerobic conditions and incubated for 72 hours at 30 C.

[3] = system: wild-type E. coli BW25113; experiment: Toleragram / OD600 / doublings at 3HP 0-50 g/L, E. coli aerobic; type: cell-based, Escherichia coli; settings: control E. coli, aerobic condition, FIG. 15B
Description: Overnight cultures of wild-type E. coli BW25113 were grown in triplicate in 5 mL standard LB medium. 100 uL of overnight cultures were used to inoculate triplicate 5 mL samples of M9 minimal medium+3HP, containing 47.7 mM Na2HPO4, 22 mM KH2PO4, 8.6 mM NaCl, 18.7 mM NH4Cl, 2 mM MgSO4, 0.1 mM CaCl2, and 0.4% glucose, with 3HP concentrations ranging from 0-50 g/L. Starting OD600 ranged from 0.02-0.08. Cultures were incubated at 37 C for about 24 hours, and OD600 was recorded every 1-2 hours for the first 8 hours with a final OD600 recorded at about 24 hours. Maximum specific growth rates (μmax) were calculated by determining the optimal fit of exponential trend lines with OD data for the evaluation period. Specific changes in OD600 over approximately 24 hours (Δ24hrOD600) were calculated as the difference in t=24 hr and t=0 optical density, Δ24hrOD600=(ODt=24)−(ODt=0). Specific number of doublings (Nd) were calculated by solving for N in the equation 2^N=(ODt=24)/(ODt=0).

O=C(O)CCO [3-HP, 3-hydroxypropionic acid] was tested, and the “improvement in MIC of 3-HP, cells comprising the aroH mutant vs control” value (E. coli Mach1-T1) was 40%, the “% Increase Over Control” value ([1]; S288C, SC media, no supplement, versus SD control, aerobic) was 33% and the “% Increase Over Control” value ([1]; strain YX-022 (pyes2.1-Aro3 pRS425-ILV6) versus control, aerobic) was 50%. For the same compound, the “% Increase Over Control” value ([1]; strain YX-CJR-010 (pyes2.1-Thr1) versus YX-CJR-001, aerobic) was 50%, the “% Increase Over Control” value ([1]; strain YX-CJR-014 (pyes2.1-arg2) versus YX-CJR-001, aerobic) was 50% and the “% Increase Over Control” value ([1]; strain YX-CJR-017 (pyes2.1-Aro7) versus YX-CJR-001, aerobic) was 75%. The “% Increase Over Control” value ([2]; strain YX-CJR-005 (pYes2.1-Met6) versus YX-CJR-001, anaerobic) was 50%, the “% Increase Over Control” value ([2]; strain YX-CJR-008 (pyes2.1-ILV1) versus YX-CJR-001, anaerobic) was 50% and the “3-HP concentration at which a dramatic reduction in cell density (OD600) at 24 hours starts” value [3] was ≥ 30 g/L.
